# Results published in US20070066682A1, “Arylalkylamine vanadium (V) salts for the treatment and/or prevention of Diabetes mellitus” (priority 2005, published 2007).
# “Also recorded” adds a separate entry of the source.
# System: streptozotocin-induced diabetic rats
# Test: Chronic subcutaneous (osmotic minipump) treatment of streptozotocin (45 mg/kg) diabetic rats, glycemia
# Assay type: in vivo, rat
# Conditions: for glycemia during chronic subcutaneous treatment: 2.5 μmol/kg/day by osmotic minipumps, about two weeks, STZ 45 mg/kg rats, dihydrate
# Method: Male Wistar rats weighting 180-220 g were purchased from Harlan (Interfauna Ibèrica S.A., Spain). Diabetes was induced by a single intraperitoneal injection of a freshly prepared solution of streptozotocin (in some studies the dose was 45 mg/kg body weight and in some others 100 mg/kg body weight dissolved in 50 mM citrate buffer, pH 4.5). Only diabetic animals with glycemia above 300 mg/dl were used. The animals were housed in animal quarters at 22° C., with a 12 h light/12 h dark cycle and were fed ad libitum. All procedures used were approved by the animal ethical committee of the University of Barcelona, Spain. Male mice C57 BL/Ks bearing the db/db mutation (Jackson Laboratories, Bar Harbor, Me.) were purchased from Harlan France (Gannat, France). C57BL/6J male mice were assigned for 16 weeks to very high-fat diet containing (in kcal): 72% from fat, 28% from proteins and <1% from carbohydrates (Burcelin et al., 2002, Am. J. Physiol. Endocrinol. Metab 282: E834-E842).
# Osmotic minipumps delivering B6V10 (2.5 μmol/kg body wt/day) or decavanadate (2.5 μmol/kg body wt/day) were implanted subcutaneously in diabetic rats anaesthetised by ketamine hydrochloride (95 mg/kg) and xylasine (10 mg/kg). […] Glycemia was measured on arterio-venous blood collected from the tail vessels at 09:00 am for two weeks, before the administration of vanadate. Insulin concentrations were determined before and after treatment. In another set of experiments, B6V10 was orally administered at a single dose of 5 μmol/kg/day during the first week and 10 μmol/kg/day during 2 additional weeks by gastric gavage. A control group received the corresponding decavanadate salt in the absence of benzylamine. At the end of the treatment, animals were sacrificed and the liver, fat pad, heart and lung were kept at −80° C. and the plasma at −20° C. until their use for in vitro analysis.
# In glucose tolerance tests and in chronic treatments, circulating glucose concentrations were determined by a rapid glucose analyser (Accutrend® Sensor Comfort, Roche, Basel. Switzerland). Plasma insulin (IRI) concentration was determined by ELISA method using a kit obtained from Crystal Chem Inc. (Downers Grove, Ill.). Plasma triglycerides (Biosystems, Barcelona, Spain) and NEFAS (Wako Chemicals, Neuss, Germany) were determined with standard […] methods.
# The effect of chronic administration of hexaquis(benzylammonium) decavanadate on glycemia from diabetic rats was determined. Thus, diabetes was induced in rats by intravenous administration of streptozotocin, which destroys the β-pancreatic cells that produce insulin.
# Chronic in vivo efficacy of B6V10 was evaluated in streptozotocin-induced diabetic rats and in db/db mice. Streptozotocin-induced (45 mg/kg) diabetic rats were subcutaneously treated with hexaquis(benzylammonium) decavanadate (2.5 μmol/kg) (B6V10, solid squares, FIG. 8A) or with decavanadate (2.5 μmol/kg) (V10, open circles, FIG. 8A) delivered subcutaneously by osmotic minipumps implanted in the dorsal region. Diabetic rats were also sham-operated (untreated, solid diamonds, FIG. 8A). […] These experiments were repeated using an oral administration protocol. Streptozotocin-induced (45 mg/kg) diabetic rats were orally treated with hexaquis(benzylammonium) decavanadate (5 μmol/kg from day 0 to day 7 and 10 μmol/kg/day from day 7 to day 17) (B6V10, solid squares, FIG. 8B) or received decavanadate (10 μmol/kg) (V10, open circles, FIG. 8B). […]
substance,measurement,setting,value
hexaquis(benzylammonium) decavanadate (V) dihydrate [Entry B6V10],glycemia during chronic subcutaneous treatment,,ameliorated hyperglycemia; also recorded: significant correction of hyperglycemia; also recorded: significant differences in the B6V10 group compared to the untreated group from day 8 of treatment
same,glycemia during chronic subcutaneous treatment,listed as hexaquis(benzylammonium) decavanadate,rapid reduction of the hyperglycemia that was detected after only four days of treatment
same,glucose transport of adipocytes isolated from treated rats,"fourteen days of treatment, basal conditions",increased glucose transport under basal conditions equivalent to that seen in the presence of insulin
